Legend:
[1] = system: B. subtilis 168; assay: fitness (endpoint OD595 vs no drug) (fraction); higher = more growth
In short: (§1)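 With the first reading as background, OD595 was measured every 30 min for 14 h in 384-well plates kept at 37 °C and inoculated at OD595 0.01. TSB, LB Lennox or CY was the medium. Fitness is the optical density at the transition into stationary phase divided by the robust mean of no-drug control wells, with a cap of 1.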

[2] = system: S. aureus DSM 20231; assay: as above
In short: as §1

[3] = system: S. aureus Newman; assay: as above
In short: as §1

[4] = system: B. subtilis 168; assay: Bliss interaction score (quartile over a dose matrix) (fitness difference); higher = more antagonism (negative = synergy)
In short: (§2)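 Combination data were used to infer fitness under each single drug. Fitness is the OD595 at entry into stationary phase divided by the robust mean of the plate's no-drug wells, with a cap of 1. The Bliss score is the observed minus the expected product fitness, summarised by quartiles over technical, biological and donor/recipient replicates.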

[5] = system: S. aureus DSM 20231; assay: as above
In short: as §2

[6] = system: S. aureus Newman; assay: as above
In short: as §2

[7] = system: S. pneumoniae D39V; assay: as above
In short: as §2
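For Bliss interaction score (quartile over a dose matrix) in this document: first quartile when negative (synergy) and third quartile when positive (antagonism).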

CC[C@H]1OC(=O)[C@H](C)[C@@H](O[C@H]2C[C@@](C)(OC)[C@@H](O)[C@H](C)O2)[C@H](C)[C@@H](O[C@@H]2O[C@H](C)C[C@H](N(C)C)[C@H]2O)[C@](C)(O)C[C@@H](C)CN(C)[C@H](C)[C@@H](O)[C@]1(C)O [Azithromycin] + C[C@@H]1O[C@@H]1P(=O)(O)O [Fosfomycin]
fitness
Conditions	partner 0.781 µg/mL	partner 1.562 µg/mL	partner 3.124 µg/mL	partner 6.248 µg/mL
[1], first compound 0.25 µg/mL	–	0.713	0.61	0.445
[1], first compound 0.5 µg/mL	–	0.622	0.582	0.442
[2], first compound 0.125 µg/mL	0.728	0.615	0.509	–
[2], first compound 0.25 µg/mL	0.68	0.625	0.554	–
[2], first compound 0.5 µg/mL	0.526	0.306	0.124	–
[3], first compound 0.125 µg/mL	0.622	0.525	0.18	–
[3], first compound 0.25 µg/mL	0.597	0.429	0.0915	–
[3], first compound 0.5 µg/mL	0.312	0.128	0.0235	–

[1], first compound 2 µg/mL, one replicate
Conditions	fitness
partner 1.562 µg/mL	0.367
partner 3.124 µg/mL	0.176
partner 6.248 µg/mL	0.0795

Conditions	Bliss interaction score
[4]	0.0745
[5]	-0.0651
[6]	-0.12
[7]	0.0708

CC[C@H]1OC(=O)[C@H](C)[C@@H](O[C@H]2C[C@@](C)(OC)[C@@H](O)[C@H](C)O2)[C@H](C)[C@@H](O[C@@H]2O[C@H](C)C[C@H](N(C)C)[C@H]2O)[C@](C)(O)C[C@@H](C)CN(C)[C@H](C)[C@@H](O)[C@]1(C)O [Azithromycin] + CCN(CC)CCOC(=O)c1ccc(N)cc1 [Procaine]
fitness
Conditions	partner 85.5 µg/mL	partner 171 µg/mL	partner 342 µg/mL
[1], first compound 0.25 µg/mL	0.867	0.9	0.861
[1], first compound 0.5 µg/mL	0.777	0.778	0.787
[2], first compound 0.125 µg/mL	–	0.905	0.912
[2], first compound 0.5 µg/mL	0.441	–	0.426
[3], first compound 0.125 µg/mL	0.871	0.864	0.843
[3], first compound 0.25 µg/mL	0.803	0.877	0.779
[3], first compound 0.5 µg/mL	0.408	–	0.401

Conditions	Bliss interaction score
[4]	-0.0562
[5]	-0.0967
[6]	-0.0635
[7]	0.0533

CC[C@H]1OC(=O)[C@H](C)[C@@H](O[C@H]2C[C@@](C)(OC)[C@@H](O)[C@H](C)O2)[C@H](C)[C@@H](O[C@@H]2O[C@H](C)C[C@H](N(C)C)[C@H]2O)[C@](C)(O)C[C@@H](C)CN(C)[C@H](C)[C@@H](O)[C@]1(C)O [Azithromycin] + O=C(O[C@@H]1Cc2c(O)cc(O)cc2O[C@@H]1c1cc(O)c(O)c(O)c1)c1cc(O)c(O)c(O)c1 [EGCG]
fitness
Conditions	partner 6.25 µg/mL	partner 12.5 µg/mL	partner 25 µg/mL	partner 50 µg/mL
[1], first compound 0.25 µg/mL	0.859	0.508	0.246	–
[1], first compound 0.5 µg/mL	0.912	0.461	–	–
[1], first compound 1 µg/mL	–	–	0.0462	–
[2], first compound 0.125 µg/mL	–	0.703	0.693	0.614
[2], first compound 0.25 µg/mL	–	0.761	0.695	–
[3], first compound 0.125 µg/mL	–	0.759	0.706	0.696
[3], first compound 0.25 µg/mL	–	0.726	0.715	0.658
[3], first compound 0.5 µg/mL	–	0.545	0.522	0.484

[1], first compound 2 µg/mL, one replicate
Conditions	fitness
partner 6.25 µg/mL	0.387
partner 12.5 µg/mL	0.229
partner 25 µg/mL	0.201

Conditions	Bliss interaction score
[4]	-0.0827
[5]	-0.13
[6]	-0.0553
[7]	0.043

CC[C@H]1OC(=O)[C@H](C)[C@@H](O[C@H]2C[C@@](C)(OC)[C@@H](O)[C@H](C)O2)[C@H](C)[C@@H](O[C@@H]2O[C@H](C)C[C@H](N(C)C)[C@H]2O)[C@](C)(O)C[C@@H](C)CN(C)[C@H](C)[C@@H](O)[C@]1(C)O [Azithromycin] + COc1ccc(C[C@H](N)C(=O)N[C@H]2[C@@H](O)[C@H](n3cnc4c(N(C)C)ncnc43)O[C@@H]2CO)cc1 [Puromycin]
fitness
Conditions	partner 0.39 µg/mL	partner 0.78 µg/mL	partner 1.56 µg/mL
[1], first compound 0.25 µg/mL	0.888	0.913	0.95
[1], first compound 0.5 µg/mL	0.828	0.815	0.82
[2], first compound 0.125 µg/mL	0.849	0.863	0.923
[2], first compound 0.25 µg/mL	0.881	0.936	0.891
[3], first compound 0.125 µg/mL	0.915	0.905	0.945
[3], first compound 0.25 µg/mL	0.884	0.836	0.889
[3], first compound 0.5 µg/mL	0.559	–	0.524

fitness, [2], one replicate
Conditions	first compound 0.125 µg/mL	first compound 0.25 µg/mL	first compound 0.5 µg/mL
partner 3.12 µg/mL	≥ 1	0.915	0.293
partner 6.24 µg/mL	0.615	0.237	0.0525

Conditions	Bliss interaction score
[4]	-0.0345
[5]	-0.0839
[6]	-0.0828
[7]	-0.0719
